Results taken from ChEMBL document CHEMBL4732099, “ROS-responsive and multifunctional anti-Alzheimer prodrugs: Tacrine-ibuprofen hybrids via a phenyl boronate linker” (Eur J Med Chem, 2021).
Active and inactive are the calls of the source. The calls are words filed in the database; no cut-off is given here.

Assays:
SH-SY5Y [1] = experiment: Cytotoxicity against human SH-SY5Y cells assessed as reduction in cell viability at 31.25 uM measured after 72 hrs by MTT assay; type: cell-based
SH-SY5Y [2] = experiment: Cytotoxicity against human SH-SY5Y cells assessed as reduction in cell viability at 7.81 to 15.62 uM measured after 72 hrs by MTT assay; type: cell-based; settings: dose 7.81-15.62 µM
SH-SY5Y [3] = experiment: Neuroprotective activity against H2O2-induced cytotoxicity in human SH-SY5Y cells assessed as cell viability at 5 uM preincubated for 6 hrs followed by H2O2 addition and measured after 24 hrs by MTT assay (reference value: 20%); type: functional; settings: time 30 hrs, read-out: Activity
[4] = molecular target: Acetylcholinesterase (Electrophorus electricus) (UniProt O42275); experiment: Inhibition of electric eel AChE at 10 uM using acetylthiocholine iodide as substrate preincubated for 5 mins followed by substrate addition and measured after 1 min by Ellman's method relative to control; settings: time 6.0 min
Chain of Acetylcholinesterase (Electrophorus electricus) (O42275 24-633 limits assumed): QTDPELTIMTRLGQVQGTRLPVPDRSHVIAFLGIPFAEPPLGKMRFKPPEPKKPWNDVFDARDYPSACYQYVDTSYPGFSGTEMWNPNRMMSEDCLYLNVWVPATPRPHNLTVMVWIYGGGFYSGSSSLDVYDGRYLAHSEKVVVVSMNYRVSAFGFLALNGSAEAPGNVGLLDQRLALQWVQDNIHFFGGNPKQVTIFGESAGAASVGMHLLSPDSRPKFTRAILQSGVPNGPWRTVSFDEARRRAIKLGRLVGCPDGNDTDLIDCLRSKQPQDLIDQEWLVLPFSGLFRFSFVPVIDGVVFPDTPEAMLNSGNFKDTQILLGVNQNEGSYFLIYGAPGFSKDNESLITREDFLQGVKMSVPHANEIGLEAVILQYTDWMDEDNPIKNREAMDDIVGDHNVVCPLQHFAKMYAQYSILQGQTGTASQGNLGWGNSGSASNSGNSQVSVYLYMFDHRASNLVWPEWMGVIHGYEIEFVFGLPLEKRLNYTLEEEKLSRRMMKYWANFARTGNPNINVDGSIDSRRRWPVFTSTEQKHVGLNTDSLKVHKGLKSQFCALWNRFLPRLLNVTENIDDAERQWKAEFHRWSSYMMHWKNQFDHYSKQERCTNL

Acetylcholinesterase = Acetylcholinesterase (Electrophorus electricus, UniProt O42275); experiment: Inhibition of electric eel AChE using acetylthiocholine iodide as substrate preincubated for 5 mins followed by substrate addition and measured after 1 min in presence of H2O2 by Ellman's method
Chain of Acetylcholinesterase (O42275 whole entry): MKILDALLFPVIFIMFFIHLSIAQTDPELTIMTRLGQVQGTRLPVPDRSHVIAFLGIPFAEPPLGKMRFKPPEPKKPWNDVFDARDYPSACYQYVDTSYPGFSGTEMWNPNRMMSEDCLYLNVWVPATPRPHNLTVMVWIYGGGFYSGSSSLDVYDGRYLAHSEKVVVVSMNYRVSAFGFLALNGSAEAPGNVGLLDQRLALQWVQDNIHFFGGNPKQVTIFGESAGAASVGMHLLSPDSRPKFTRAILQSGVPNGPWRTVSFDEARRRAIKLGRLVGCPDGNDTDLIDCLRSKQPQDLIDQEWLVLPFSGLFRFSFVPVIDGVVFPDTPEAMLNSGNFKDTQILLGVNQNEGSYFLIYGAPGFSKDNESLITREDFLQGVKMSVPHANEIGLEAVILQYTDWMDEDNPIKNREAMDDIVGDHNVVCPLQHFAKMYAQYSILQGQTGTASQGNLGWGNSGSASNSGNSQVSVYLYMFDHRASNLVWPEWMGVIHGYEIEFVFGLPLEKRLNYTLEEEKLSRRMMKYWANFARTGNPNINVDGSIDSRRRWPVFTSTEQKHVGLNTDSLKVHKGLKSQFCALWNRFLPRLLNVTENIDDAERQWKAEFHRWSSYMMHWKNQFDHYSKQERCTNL

[5] = Drug uptake in human SH-SY5Y cells at 10 uM measured after 12 hrs by laser scanning confocal microscopic analysis; type: ADME, cell-based
[6] = Drug uptake in mouse BV-2 cells at 10 uM measured after 12 hrs by laser scanning confocal microscopic analysis; type: ADME, cell-based; settings: bv-2, 12 h
SH-SY5Y [7] = experiment: Neuroprotective activity against H2O2-induced apoptosis in human SH-SY5Y cells assessed as reduction in Bax expression at 10 uM preincubated for 6 hrs followed by H2O2 addition and measured after 24 hrs by Western blot analysis; type: functional, cell-based; settings: time 30.0 hrs
SH-SY5Y [8] = experiment: Neuroprotective activity against H2O2-induced apoptosis in human SH-SY5Y cells assessed as reduction in cleaved caspase-3 expression at 10 uM preincubated for 6 hrs followed by H2O2 addition and measured after 24 hrs by Western blot analysis; type: functional, cell-based; settings: time 30.0 hrs
SH-SY5Y [9] = experiment: Neuroprotective activity against H2O2-induced apoptosis in human SH-SY5Y cells assessed as increase in Bcl-2 expression at 10 uM preincubated for 6 hrs followed by H2O2 addition and measured after 24 hrs by Western blot analysis; type: functional, cell-based; settings: time 30.0 hrs

For `Cc1cc(COC(=O)NCCCCNc2c3c(nc4ccccc24)CCCC3)c(OCc2ccc(B3OC(C)(C)C(C)(C)O3)cc2)c(COC(=O)C(C)c2ccc(CC(C)C)cc2)c1` (stereo not given), the Activity (SH-SY5Y [1]) was “Toxic”, the Activity (SH-SY5Y [2]) was “Non-Toxic” and the viability at 5 µM (SH-SY5Y [3]) was over 50%. It also gave an inhibition [4] of 46% and an IC50 (Acetylcholinesterase) of 80 nM.

For `Cc1cc(COC(=O)CCCCCOc2ccc3ccc(=O)oc3c2)c(OCc2ccc(B3OC(C)(C)C(C)(C)O3)cc2)c(COC(=O)C(C)c2ccc(CC(C)C)cc2)c1` (stereo not given), the Drug uptake [5] was “Active” and the Drug uptake [6] was “Active”.

With `COc1cc(/C=C/C(=O)O)ccc1O` the Activity (SH-SY5Y [7]) was “Active”, the Activity (SH-SY5Y [8]) was “Active” and the Activity (SH-SY5Y [9]) was “Active”.
